Test results published in patent publication US20260224658A1, “PRODUCTS AND METHODS FOR THE DIAGNOSIS AND TREATMENT OF P[…]” (priority 2023, published 2026).
≈ marks a conversion by molar mass, not a printed value.

Experiments:
Assay type in all cases: cell-based, Pseudomonas aeruginosa
[1] = tested on: MPAO1; assay: In vitro adaptive evolution (serial passaging) with MIC determination; conditions: for MIC: Pseudomonas aeruginosa
Description: (§1) MICs were determined via microbroth dilution assay in 96-well culture plates with 2-fold serial dilutions of tested antibiotic in Mueller-Hinton (cation-adjusted) broth, inoculated with 50 μL of 2.75×10^5 CFU/mL of each bacterial strain and incubated at 37° C., 200 rpm for 24 hours. MIC experiments were performed using biological triplicates.
(§2) Serial passaging of bacterial strains was performed in 96-well culture plates with 2-fold serial dilutions of antibiotic in MH broth, inoculated with 50 μL 2.75×10^5 CFU/mL of each strain and incubated at 37° C., 200 rpm for 24 hours. […] The bacteria were then serially passaged in the same antibiotic and MIC determined for all antibiotics (aztreonam, ciprofloxacin, D-CONGA, D-CONGA-Q7, polymyxin B). See Antimicrobial susceptibility testing section. The bacteria were serially passaged a total of 10 times.
(§3) All resistance acquisition data was analyzed in units of fold-change to normalize for differences in starting MIC across strains. Fold-change in MIC data for all strains and treatment groups was natural log-transformed and simple linear regression was performed considering each replicate fold-change value as an individual point. Slope, standard error of slope, and total number of values of each treatment group of interest were analyzed via unpaired t-test (ΔmutS vs WT) or ordinary one-way ANOVA (cross-resistance acquisition of ΔmutS+AB vs −AB vs WT), and α-values were corrected for multiple comparisons using the Bonferroni method. Differences in estimated mutation rate across treatment groups were determined via ordinary one-way ANOVA (Brown-Forsythe test). For all statistical tests, p<0.05 was considered significant. All figures were created and statistical tests were done using GraphPad Prism 9.3.1.

[2] = tested on: MPAO1-ΔmutS; assay: as above; conditions: for MIC: Pseudomonas aeruginosa
Description: as §1, §2, §3

[3] = tested on: MPAO1; assay: microbe, parasite or virus in culture; conditions: strain MPAO1; for MIC: Pseudomonas aeruginosa, read-out: MIC, average of triplicates
Description: (§4) MIC experiments were performed using biological triplicates.

[4] = tested on: PAO1; assay: microbe, parasite or virus in culture; conditions: strain PAO1; for MIC: Pseudomonas aeruginosa, read-out: MIC, average of triplicates
Description: as §4

[5] = tested on: MPAO1-ΔmutL; assay: MIC, microbroth dilution assay; conditions: for MIC: Pseudomonas aeruginosa, read-out: MIC, average of triplicates
Description: as §4

[6] = tested on: MPAO1-ΔmutS; assay: MIC, microbroth dilution assay; conditions: for MIC: Pseudomonas aeruginosa, read-out: MIC, average of triplicates
Description: as §4

[7] = tested on: MPAO1-ΔmutL; assay: In vitro adaptive evolution (serial passaging) with MIC determination
Description: as §1, §2, §3

[8] = MPAO1 evolved in AZ + D-CONGA-Q7
[9] = MPAO1 passaged with No Antibiotic (Table 4)
[10] = MPAO1 passaged with No Antibiotic (Table 8)
[11] = MPAO1-ΔmutL evolved in Chl + Str
[12] = MPAO1-ΔmutL passaged with No Antibiotic
[13] = MPAO1-ΔmutS evolved in AZ + COL
[14] = MPAO1-ΔmutS evolved in AZ + D-CONGA
[15] = MPAO1-ΔmutS evolved in AZ + D-CONGA-Q7
[16] = MPAO1-ΔmutS evolved in D-CONGA-Q7
[17] = MPAO1-ΔmutS passaged with No Antibiotic (Table 4)
[18] = MPAO1-ΔmutS passaged with No Antibiotic (Table 8)

In the case of O=C(O)c1cn(C2CC2)c2cc(N3CCNCC3)c(F)cc2c1=O [Ciprofloxacin], the MIC ([1]; read-out: Average MIC at end point, MPAO1 evolved in AZ) is reported as 0.25 µg/mL (≈ 0.754 µM), the MIC ([1]; read-out: Average MIC at end point, MPAO1 evolved in AZ + COL) is reported as 2 µg/mL and the MIC ([1]; read-out: Average MIC at end point, MPAO1 evolved in AZ + D-CONGA) is reported as 0.7 µg/mL. For the same compound, the MIC ([1]; read-out: Average MIC at end point, MPAO1 evolved in AZ + D-CONGA-Q7) was 0.8 µg/mL, the MIC ([1]; read-out: Average MIC at end point, MPAO1 evolved in COL) was 2 µg/mL (≈ 6.04 µM) and the MIC ([1]; read-out: Average MIC at end point, MPAO1 evolved in Chl) was 1 µg/mL (≈ 3.02 µM). For the same compound, the MIC ([1]; read-out: Average MIC at end point, MPAO1 evolved in Chl + Str) was 2 µg/mL, the MIC ([1]; read-out: Average MIC at end point, MPAO1 evolved in D-CONGA) was 1 µg/mL (≈ 3.02 µM) and the MIC ([1]; read-out: Average MIC at end point, MPAO1 evolved in D-CONGA-Q7) was 0.75 µg/mL (≈ 2.26 µM). For the same compound, the MIC ([1]; read-out: Average MIC at end point, MPAO1 passaged with No Antibiotic (Table 4)) was 2 µg/mL (≈ 6.04 µM), the MIC ([1]; read-out: Average MIC at end point, MPAO1 passaged with No Antibiotic (Table 8)) was 0.8 µg/mL (≈ 2.41 µM) and the MIC ([2]; read-out: Average MIC at end point, MPAO1-ΔmutS evolved in AZ) was 4 µg/mL (≈ 12.1 µM). It also gave an MIC ([2]; read-out: Average MIC at end point, MPAO1-ΔmutS evolved in AZ + COL) of 2 µg/mL, an MIC ([2]; read-out: Average MIC at end point, MPAO1-ΔmutS evolved in AZ + D-CONGA) of 0.8 µg/mL and an MIC ([2]; read-out: Average MIC at end point, MPAO1-ΔmutS evolved in AZ + D-CONGA-Q7) of 0.7 µg/mL. It also gave an MIC ([2]; read-out: Average MIC at end point, MPAO1-ΔmutS evolved in Chl) of 8 µg/mL (≈ 24.1 µM), an MIC [3] of 0.5 µg/mL (≈ 1.51 µM) and an MIC [4] of 0.25 µg/mL (≈ 0.754 µM). The MIC [5] was 0.3 µg/mL (≈ 0.905 µM) and the MIC [6] was 1 µg/mL (≈ 3.02 µM).
In the case of [H]/N=C(/N)N[C@H]1[C@H](O)[C@@H](O)[C@H](O[C@@H]2O[C@@H](C)[C@](O)(C=O)[C@H]2O[C@@H]2O[C@@H](CO)[C@H](O)[C@@H](O)[C@@H]2NC)[C@@H](N/C(N)=N\[H])[C@@H]1O [Streptomycin], the MIC [3] is reported as 8 µg/mL (≈ 13.8 µM), the MIC [4] is reported as 21 µg/mL (≈ 36.1 µM) and the MIC [5] is reported as 43 µg/mL (≈ 73.9 µM). It also gave an MIC [6] of 32 µg/mL (≈ 55 µM).
For Polymyxin B, the “Average MIC at end point” value ([1]; MPAO1 evolved in AZ) was 3 µg/mL, the “fold-change relative to starting MIC before treatment” value ([1]; MPAO1 evolved in AZ) was 1.3 and the “Average MIC at end point” value ([1]; MPAO1 evolved in AZ + COL) was 2 µg/mL. For the same compound, the “fold-change relative to starting MIC before treatment” value ([1]; MPAO1 evolved in AZ + COL) was 1, the “Average MIC at end point” value ([1]; MPAO1 evolved in AZ + D-CONGA) was 2 µg/mL and the “fold-change relative to starting MIC before treatment” value ([1]; MPAO1 evolved in AZ + D-CONGA) was 1. The “Average MIC at end point” value [1, 8] was 2 µg/mL, the “fold-change relative to starting MIC before treatment” value [1, 8] was 1 and the “Average MIC at end point” value ([1]; MPAO1 evolved in COL) was 2 µg/mL. For the same compound, the “fold-change relative to starting MIC before treatment” value ([1]; MPAO1 evolved in COL) was 1, the “Average MIC at end point” value ([1]; MPAO1 evolved in Chl) was 2 µg/mL and the “fold-change relative to starting MIC before treatment” value ([1]; MPAO1 evolved in Chl) was 1. The “Average MIC at end point” value ([1]; MPAO1 evolved in D-CONGA) was 4 µg/mL, the “fold-change relative to starting MIC before treatment” value ([1]; MPAO1 evolved in D-CONGA) was 2.4 and the “Average MIC at end point” value ([1]; MPAO1 evolved in D-CONGA-Q7) was 2 µg/mL. The “fold-change relative to starting MIC before treatment” value ([1]; MPAO1 evolved in D-CONGA-Q7) was 1, the “Average MIC at end point” value [1, 9] was 1 (1) μg/mL and the “fold-change relative to starting MIC before treatment” value [1, 9] was 1 (1). For the same compound, the “Average MIC at end point” value [1, 10] was 2 µg/mL, the “fold-change relative to starting MIC before treatment” value [1, 10] was 1 and the “Average MIC at end point” value [7, 11] was 0.5 µg/mL. For the same compound, the “fold-change relative to starting MIC before treatment” value [7, 11] was 0.25, the “Average MIC at end point” value [7, 12] was 2 µg/mL and the “fold-change relative to starting MIC before treatment” value [7, 12] was 0.6. For the same compound, the “Average MIC at end point” value ([2]; MPAO1-ΔmutS evolved in AZ) was 2 µg/mL, the “fold-change relative to starting MIC before treatment” value ([2]; MPAO1-ΔmutS evolved in AZ) was 1 and the “Average MIC at end point” value [2, 13] was 2 µg/mL. For the same compound, the “fold-change relative to starting MIC before treatment” value [2, 13] was 1, the “Average MIC at end point” value [2, 14] was 2 µg/mL and the “fold-change relative to starting MIC before treatment” value [2, 14] was 1. For the same compound, the “Average MIC at end point” value [2, 15] was 2 µg/mL, the “fold-change relative to starting MIC before treatment” value [2, 15] was 1 and the “Average MIC at end point” value ([2]; MPAO1-ΔmutS evolved in COL) was 27 µg/mL. The “fold-change relative to starting MIC before treatment” value ([2]; MPAO1-ΔmutS evolved in COL) was 8, the “Average MIC at end point” value ([2]; MPAO1-ΔmutS evolved in Chl) was 2 µg/mL and the “fold-change relative to starting MIC before treatment” value ([2]; MPAO1-ΔmutS evolved in Chl) was 1. For the same compound, the “Average MIC at end point” value ([2]; MPAO1-ΔmutS evolved in D-CONGA) was 3 µg/mL, the “fold-change relative to starting MIC before treatment” value ([2]; MPAO1-ΔmutS evolved in D-CONGA) was 1.33 and the “Average MIC at end point” value [2, 16] was 4 µg/mL. For the same compound, the “fold-change relative to starting MIC before treatment” value [2, 16] was 2, the “Average MIC at end point” value [2, 17] was 2 µg/mL and the “fold-change relative to starting MIC before treatment” value [2, 17] was 1. For the same compound, the “Average MIC at end point” value [2, 18] was 2 µg/mL, the “fold-change relative to starting MIC before treatment” value [2, 18] was 1 and the “MIC, average of triplicates” value [3] was 2 µg/mL. The “MIC, average of triplicates” value [4] was 2 µg/mL, the “MIC, average of triplicates” value ([5]; strain ΔmutL) was 3 µg/mL and the “MIC, average of triplicates” value ([6]; strain ΔmutS) was 2 µg/mL.
